Assay [1] has as its target T1, 5-hydroxytryptamine receptor 1A (Rattus norvegicus, UniProt P19327).
T1 sequence (P19327 whole entry): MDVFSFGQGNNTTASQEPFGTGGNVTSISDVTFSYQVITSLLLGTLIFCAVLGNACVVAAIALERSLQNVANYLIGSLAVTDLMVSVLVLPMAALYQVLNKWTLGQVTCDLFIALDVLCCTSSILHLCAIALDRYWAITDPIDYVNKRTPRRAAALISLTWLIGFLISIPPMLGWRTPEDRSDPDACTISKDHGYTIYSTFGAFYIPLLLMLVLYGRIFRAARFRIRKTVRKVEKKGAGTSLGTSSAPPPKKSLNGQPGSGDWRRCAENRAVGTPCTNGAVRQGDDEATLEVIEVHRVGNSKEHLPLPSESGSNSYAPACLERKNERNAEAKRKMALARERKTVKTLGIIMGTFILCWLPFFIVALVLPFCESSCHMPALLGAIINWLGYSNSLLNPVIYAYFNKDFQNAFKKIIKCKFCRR
Description: Compound was measured for the inhibition of [3H]8-OH-DPAT binding to rat hippocampus membrane (5-HT1A receptor). In kind it is tissue-based.

The next assay deals with D(3) dopamine receptor (Homo sapiens, UniProt P35462). Briefly: Compound was measured for the binding affinity in chinese hamster ovary (CHO) cells transfected with human Dopamine receptor D3 using [3H]raclopride as radioligand. The class given is cell-based.
A further assay deals with D(2) dopamine receptor (Homo sapiens, UniProt P14416). Briefly: Compound was measured for the binding affinity in homogenated mouse fibroblast (LTK) cells transfected with human Dopamine receptor D2A using [3H]raclopride as radioligand.

The results in this text go back to ChEMBL document CHEMBL1130712, “Phenylpiperazine derivatives with strong affinity for 5HT1A, D2A and D3 receptors” (Bioorg Med Chem Lett, 1998).

Molecules are shown by their SMILES.

D(3) dopamine receptor, sequence (P35462 whole entry): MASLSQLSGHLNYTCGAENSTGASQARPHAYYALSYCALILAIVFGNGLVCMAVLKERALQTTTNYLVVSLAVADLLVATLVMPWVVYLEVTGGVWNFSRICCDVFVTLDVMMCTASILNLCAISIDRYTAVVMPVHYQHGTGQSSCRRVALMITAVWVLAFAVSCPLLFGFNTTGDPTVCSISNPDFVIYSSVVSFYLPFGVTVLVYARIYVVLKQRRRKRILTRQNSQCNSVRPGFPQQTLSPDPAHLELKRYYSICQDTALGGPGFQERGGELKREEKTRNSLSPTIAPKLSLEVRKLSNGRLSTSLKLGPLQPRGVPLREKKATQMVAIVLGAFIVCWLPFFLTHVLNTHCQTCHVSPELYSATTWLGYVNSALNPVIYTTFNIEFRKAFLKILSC
D(2) dopamine receptor, sequence (P14416 whole entry): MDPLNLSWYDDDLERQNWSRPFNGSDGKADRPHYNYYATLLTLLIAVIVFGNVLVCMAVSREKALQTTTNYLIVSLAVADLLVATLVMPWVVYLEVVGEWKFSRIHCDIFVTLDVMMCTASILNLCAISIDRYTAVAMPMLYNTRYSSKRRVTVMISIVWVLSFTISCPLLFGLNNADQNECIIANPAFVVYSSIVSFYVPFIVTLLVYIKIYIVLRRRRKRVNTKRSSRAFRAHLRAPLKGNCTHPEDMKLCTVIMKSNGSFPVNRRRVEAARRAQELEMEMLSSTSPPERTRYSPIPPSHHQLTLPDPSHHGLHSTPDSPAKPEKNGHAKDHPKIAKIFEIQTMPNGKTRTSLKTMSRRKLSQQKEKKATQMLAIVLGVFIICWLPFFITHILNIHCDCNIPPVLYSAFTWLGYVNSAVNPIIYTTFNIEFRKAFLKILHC

For `Cc1c(C)c2ccc(OCCCN3CCN(c4ccccc4)CC3)cc2oc1=O`, the inhibition constant (Ki) amounted to 5.31 nM in assay [1], 44.7 nM on D(3) dopamine receptor and 5.92 nM on D(2) dopamine receptor.
For `Cc1cc(=O)oc2cc(OCCCN3CCN(c4ccccc4)CC3)ccc12`, the inhibition constant Ki in assay [1] amounted to 5.54 nM; on D(3) dopamine receptor, 73.8 nM; on D(2) dopamine receptor, 13.7 nM.
As for `O=c1ccc2ccc(OCCCN3CCN(c4ccccc4)CC3)cc2o1`, the inhibitory constant (Ki) in assay [1] amounted to 5.61 nM; at D(3) dopamine receptor, 49.7 nM; at D(2) dopamine receptor, 16 nM.
On to `Cc1cc2ccc(OCCCN3CCN(c4ccccc4)CC3)cc2oc1=O`, for which the Ki at D(3) dopamine receptor was determined as 18.9 nM; at D(2) dopamine receptor, 10.8 nM.

Usually Ki stands for a dissociation constant, usually derived from enzyme kinetics or from competition with a known ligand. A lower Ki goes with higher affinity.
